Earlier results in patent publication US20130096134A1, “HETEROCYCLIC COMPOUNDS AND THEIR USES” (Amgen Inc., priority 2010, published 2013).

What was measured:
[1] = test system: protein kinases
[2] = target: T1, p110δ (Homo sapiens, UniProt O00329)
T1 sequence (O00329 1-1044): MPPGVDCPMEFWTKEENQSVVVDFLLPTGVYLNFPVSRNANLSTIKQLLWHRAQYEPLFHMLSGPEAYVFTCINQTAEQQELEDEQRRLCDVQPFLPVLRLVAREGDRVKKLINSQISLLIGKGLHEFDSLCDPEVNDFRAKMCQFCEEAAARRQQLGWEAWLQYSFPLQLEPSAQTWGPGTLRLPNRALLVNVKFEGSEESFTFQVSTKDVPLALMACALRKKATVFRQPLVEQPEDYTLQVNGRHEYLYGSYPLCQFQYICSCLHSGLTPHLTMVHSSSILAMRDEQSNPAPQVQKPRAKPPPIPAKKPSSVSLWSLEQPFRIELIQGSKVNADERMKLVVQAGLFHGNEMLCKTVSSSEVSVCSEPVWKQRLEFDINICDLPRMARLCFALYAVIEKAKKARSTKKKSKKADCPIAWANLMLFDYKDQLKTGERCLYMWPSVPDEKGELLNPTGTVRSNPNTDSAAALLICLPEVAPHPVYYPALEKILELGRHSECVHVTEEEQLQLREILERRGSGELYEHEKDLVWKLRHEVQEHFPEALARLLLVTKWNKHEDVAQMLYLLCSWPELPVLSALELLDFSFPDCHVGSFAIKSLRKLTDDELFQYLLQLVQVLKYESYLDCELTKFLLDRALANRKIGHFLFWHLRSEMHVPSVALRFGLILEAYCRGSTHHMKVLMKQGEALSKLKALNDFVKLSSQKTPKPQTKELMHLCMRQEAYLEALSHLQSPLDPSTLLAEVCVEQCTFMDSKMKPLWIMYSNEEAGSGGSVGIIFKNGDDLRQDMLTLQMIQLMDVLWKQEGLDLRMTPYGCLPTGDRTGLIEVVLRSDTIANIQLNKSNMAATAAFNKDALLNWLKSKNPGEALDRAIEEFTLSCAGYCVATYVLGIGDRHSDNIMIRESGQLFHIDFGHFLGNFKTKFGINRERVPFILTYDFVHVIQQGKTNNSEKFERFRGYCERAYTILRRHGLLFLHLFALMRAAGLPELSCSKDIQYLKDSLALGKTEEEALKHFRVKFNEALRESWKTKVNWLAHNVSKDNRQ

[3] = test system: murine model of asthma; conditions: ovalbumin-induced airway inflammation
[4] = test system: model of systemic lupus erythematosis; conditions: in vivo
[5] = test system: mouse model of rheumatoid arthritis; conditions: in vivo

SMILES	activity against any protein kinases tested [1]	inhibition of p110δ [2]	inflammation and disease in a murine model of asthma [3]	onset of disease in a model of systemic lupus erythematosis [4]	efficacy in a mouse model of rheumatoid arthritis [5]
Cc1ccccc1-n1c(Cn2cnc3c(N)ncnc32)nc2cccc(C)c2c1=O [IC87114]	no activity	high nanomolar range (triple digit)	significantly ameliorate inflammation and disease		
O=C1NC(=O)/C(=C\c2ccc3nccnc3c2)S1 [AS 605240]				delay onset of disease	efficacious
